Reference: US7973061B2, “Anaplastic lymphoma kinase modulators and methods of use” (Exelixis, Inc., priority 2004, dated 2011)

Molecular target: T1, ALK (baculovirus expressed human ALK kinase domain F1098-K1410) (Homo sapiens, UniProt Q9UM73)
T1 construct: human ALK kinase domain F1098-K1410; made in house
Experiment: biochemical
Details: 1 μM ATP, 4 μM poly-AEKY, 12 nM ALK, 2 hours at ambient temperature; read-out: ALK IC50
How it was run: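 Baculovirus-expressed human ALK kinase domain (F1098-K1410) was run in a luciferase-coupled chemiluminescent format, with ATP near its KM. After 2 h at ambient temperature, remaining ATP was read by luciferase-luciferin luminescence. IC50 came from 10-point dose-response curves fitted to a four-parameter equation with Hill slope.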

T1 sequence (Q9UM73 1098-1410): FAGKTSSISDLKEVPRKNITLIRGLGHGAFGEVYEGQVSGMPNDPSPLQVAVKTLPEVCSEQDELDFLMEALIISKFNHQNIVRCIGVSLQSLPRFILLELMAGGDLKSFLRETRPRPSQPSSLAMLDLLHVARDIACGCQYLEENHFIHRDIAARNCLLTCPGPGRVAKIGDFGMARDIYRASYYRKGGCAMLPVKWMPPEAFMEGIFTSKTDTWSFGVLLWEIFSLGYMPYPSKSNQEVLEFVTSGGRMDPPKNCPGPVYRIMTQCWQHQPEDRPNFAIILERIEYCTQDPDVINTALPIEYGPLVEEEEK

| IC50 | SMILES |
| --- | --- |
| 50 to 500 nM | CCc1ccc(OCC(=O)NCc2nc(C(=O)NCCc3cccc(Cl)c3)cs2)cc1 [Entry 111, N-[2-(3-chlorophenyl)ethyl]-2-[({[(4-ethylphenyl)oxy]acetyl}amino)methyl]-1,3-thiazole-4-carboxamide] |
| 50 to 500 nM | O=C(COc1ccc(OC(F)(F)F)cc1)NCc1nc(C(=O)NCCc2ccccn2)cs1 [Entry 77, N-(2-pyridin-2-ylethyl)-2-({[({4-[(trifluoromethyl)oxy]phenyl}oxy)acetyl]amino}methyl)-1,3-thiazole-4-carboxamide] |
| 50 to 500 nM | O=C(CNC(=O)c1ccc([N+](=O)[O-])cc1)NCc1nc(C(=O)NCCc2cccc(Cl)c2)cs1 [Entry 136, N-[2-(3-chlorophenyl)ethyl]-2-[({N-[(4-nitrophenyl)carbonyl]glycyl}amino)methyl]-1,3-thiazole-4-carboxamide] |
| 50 to 500 nM | COc1ccccc1CNC(=O)c1csc(CNC(=O)COc2ccc(I)cc2)n1 [Entry 82, 2-[({[(4-iodophenyl)oxy]acetyl}amino)methyl]-N-{[2-(methyloxy)phenyl]methyl}-1,3-thiazole-4-carboxamide] |
| 50 to 500 nM | O=C(COc1ccc(OC(F)(F)F)cc1)NCc1nc(C(=O)NCc2ccc(Cl)c(C(F)(F)F)c2)cs1 [Entry 73, N-{[4-chloro-3-(trifluoromethyl)phenyl]methyl}-2-({[({4-[(trifluoromethyl)oxy]phenyl}oxy)acetyl]amino}methyl)-1,3-thiazole-4-carboxamide] |
| 50 to 500 nM | COc1ccccc1CCNC(=O)c1csc(CNC(=O)COc2ccc(OC(F)(F)F)cc2)n1 [Entry 80, N-{2-[2-(methyloxy)phenyl]ethyl}-2-({[({4-[(trifluoromethyl)oxy]phenyl}oxy)acetyl]amino}methyl)-1,3-thiazole-4-carboxamide] |
| 50 to 500 nM | O=C(COc1ccc(OC(F)(F)F)cc1)NCc1nc(C(=O)NCc2cccc(C(F)(F)F)c2F)cs1 [Entry 158, N-{[2-fluoro-3-(trifluoromethyl)phenyl]methyl}-2-({[({4-[(trifluoromethyl)oxy]phenyl}oxy)acetyl]amino}methyl)-1,3-thiazole-4-carboxamide] |
| 50 to 500 nM | COc1cccc(CNC(=O)c2csc(CNC(=O)c3cccnc3Oc3ccc(Cl)cc3)n2)c1OC [Entry 144, N-({4-[({[2,3-bis(methyloxy)phenyl]methyl}amino)carbonyl]-1,3-thiazol-2-yl}methyl)-2-[(4-chlorophenyl)oxy]pyridine-3-carboxamide] |
| 50 to 500 nM | Cc1onc(-c2ccccc2)c1CNC(=O)c1csc(CNC(=O)COc2ccc(OC(F)(F)F)cc2)n1 [Entry 135, N-[(5-methyl-3-phenylisoxazol-4-yl)methyl]-2-({[({4-[(trifluoromethyl)oxy]phenyl}oxy)acetyl]amino}methyl)-1,3-thiazole-4-carboxamide] |
| 50 to 500 nM | CCc1ccc(NC(=O)NCc2nc(C(=O)NCCc3ccccc3F)cs2)cc1 [Entry 101, 2-[({[(4-ethylphenyl)amino]carbonyl}amino)methyl]-N-[2-(2-fluorophenyl)ethyl]-1,3-thiazole-4-carboxamide] |
| 50 to 500 nM | Cc1ccc(NC(=O)NCc2nc(C(=O)NCCc3cccc(Cl)c3)cs2)cc1 [Entry 168, N-[2-(3-chlorophenyl)ethyl]-2-[({[(4-methylphenyl)amino]carbonyl}amino)methyl]-1,3-thiazole-4-carboxamide] |
| 50 to 500 nM | COc1ccc(CNC(=O)c2csc(CNC(=O)COc3ccc(OC(F)(F)F)cc3)n2)c(OC)c1 [Entry 120, N-{[2,4-bis(methyloxy)phenyl]methyl}-2-({[({4-[(trifluoromethyl)oxy]phenyl}oxy)acetyl]amino}methyl)-1,3-thiazole-4-carboxamide] |
| < 50 nM | COc1cccc(CNC(=O)c2csc(CNC(=O)COc3ccc(OC(F)(F)F)cc3)n2)c1OC [Entry 11, N-{[2,3-bis(methyloxy)phenyl]methyl}-2-({[({4-[(trifluoromethyl)oxy]phenyl}oxy)acetyl]amino}methyl)-1,3-thiazole-4-carboxamide] |
| 500 to 2000 nM | O=C(COc1ccc(OC(F)(F)F)cc1)NCc1nc(C(=O)NCc2ccncc2)cs1 [Entry 285, N-(pyridin-4-ylmethyl)-2-({[({4-[(trifluoromethyl)oxy]phenyl}oxy)acetyl]amino}methyl)-1,3-thiazole-4-carboxamide] |
| < 50 nM | C[C@@H]1[C@@H](NC(=O)c2csc(CNC(=O)COc3ccc(OC(F)(F)F)cc3)n2)C[C@H]2C[C@@H]1C2(C)C [Entry 12, 2-({[({4-[(trifluoromethyl)oxy]phenyl}oxy)acetyl]amino}methyl)-N-[(1S,2S,3S,5R)-2,6,6-trimethylbicyclo[3.1.1]hept-3-yl]-1,3-thiazole-4-carboxamide] |
| 50 to 500 nM | COc1ccc(CCNC(=O)c2coc(CNC(=O)COc3ccc(OC(F)(F)F)cc3)n2)cc1OC [Entry 155, N-{2-[3,4-bis(methyloxy)phenyl]ethyl}-2-({[({4-[(trifluoromethyl)oxy]phenyl}oxy)acetyl]amino}methyl)-1,3-oxazole-4-carboxamide] |
| 50 to 500 nM | O=C(COc1ccc(OC(F)(F)F)cc1)NCc1nc(C(=O)NCc2ccc(Cl)c(Cl)c2)cs1 [Entry 75, N-[(3,4-dichlorophenyl)methyl]-2-({[({4-[(trifluoromethyl)oxy]phenyl}oxy)acetyl]amino}methyl)-1,3-thiazole-4-carboxamide] |
| 500 to 2000 nM | COc1cccc(CNC(=O)c2csc(CNC(=O)Cc3ccc4ccccc4c3)n2)c1OC [Entry 256, N-{[2,3-bis(methyloxy)phenyl]methyl}-2-{[(naphthalen-2-ylacetyl)amino]methyl}-1,3-thiazole-4-carboxamide] |
| < 50 nM | CCOc1cc(CCNC(=O)c2csc(CNC(=O)COc3ccc(OC(F)(F)F)cc3)n2)ccc1OC [Entry 20, N-{2-[3-(ethyloxy)-4-(methyloxy)phenyl]ethyl}-2-({[({4-[(trifluoromethyl)oxy]phenyl}oxy)acetyl]amino}methyl)-1,3-thiazole-4-carboxamide] |
| 50 to 500 nM | COc1ccc(CCNC(=O)c2csc(CNC(=O)COc3ccc(OC(F)(F)F)cc3)n2)cc1OC [Entry 42, N-{2-[3,4-bis(methyloxy)phenyl]ethyl}-2-({[({4-[(trifluoromethyl)oxy]phenyl}oxy)acetyl]amino}methyl)-1,3-thiazole-4-carboxamide] |
| < 50 nM | O=C(COc1ccc(OC(F)(F)F)cc1)NCc1nc(C(=O)N2Cc3ccccc3C2)cs1 [Entry 3, N-{[4-(1,3-dihydro-2H-isoindol-2-ylcarbonyl)-1,3-thiazol-2-yl]methyl}-2-({4-[(trifluoromethyl)oxy]phenyl}oxy)acetamide] |
| 500 to 2000 nM | COc1ccccc1CNC(=O)c1csc(CNC(=O)Cc2ccc3ccccc3c2)n1 [Entry 229, N-{[2-(methyloxy)phenyl]methyl}-2-{[(naphthalen-2-ylacetyl)amino]methyl}-1,3-thiazole-4-carboxamide] |
| 50 to 500 nM | C[C@H](NC(=O)c1csc(CNC(=O)COc2ccc(OC(F)(F)F)cc2)n1)C1CCCCC1 [Entry 95, N-[(1S)-1-cyclohexylethyl]-2-({[({4-[(trifluoromethyl)oxy]phenyl}oxy)acetyl]amino}methyl)-1,3-thiazole-4-carboxamide] |
